# Assay results published in ChEMBL document CHEMBL1201862, “PubChem BioAssay data set” (2004).
# Calls of active or inactive are those of the source.
# What was measured:
# [1] = molecular target: T1, Neuropeptide Y receptor type 2 (Homo sapiens, UniProt P49146); assay: Fluorescence counterscreen for potentiators or agonists of NPY-Y1: Cell-based high-throughput dose response assay for potentiators or agonists of NPY-Y2.; type: functional
# T1 sequence (P49146 whole entry): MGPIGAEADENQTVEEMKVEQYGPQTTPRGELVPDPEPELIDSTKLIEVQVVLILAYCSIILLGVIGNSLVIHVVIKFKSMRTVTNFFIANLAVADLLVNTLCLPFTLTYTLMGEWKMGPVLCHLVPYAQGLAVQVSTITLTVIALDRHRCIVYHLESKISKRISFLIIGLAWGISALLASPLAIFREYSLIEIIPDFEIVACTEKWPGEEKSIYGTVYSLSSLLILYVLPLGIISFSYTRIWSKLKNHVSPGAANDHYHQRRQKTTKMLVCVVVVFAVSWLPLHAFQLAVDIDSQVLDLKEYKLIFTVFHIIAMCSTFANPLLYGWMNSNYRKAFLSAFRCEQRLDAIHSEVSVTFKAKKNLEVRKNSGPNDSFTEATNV
# [2] = molecular target: T1, Neuropeptide Y receptor type 2; assay: Fluorescence-based counterscreen for agonists of NPY-Y1: cell-based high-throughput dose response assay for agonists of NPY-Y2.; type: functional
# [3] = test system: HEK293; assay: Fluorescence-based counterscreen for potentiators or agonists of NPY-Y1: cell-based high-throughput dose response assay for inhibitors of cyclic nucleotide gated ion channel (CNGC) activity. In this assay, the parental HEK293 cell line transfected with a cyclic-nucleotide gated ion channel (CNGC)-based cAMP sensor is used to measure inhibition of isoproterenol-induced CNGC …; type: functional; details: Homo sapiens
# [4] = molecular target: T2, Neuropeptide Y receptor type 1 (Homo sapiens, UniProt P25929); assay: Fluorescence-based dose response cell-based high-throughput screening assay for potentiators or agonists of NPY-Y1.; type: functional
# T2 sequence (P25929 whole entry): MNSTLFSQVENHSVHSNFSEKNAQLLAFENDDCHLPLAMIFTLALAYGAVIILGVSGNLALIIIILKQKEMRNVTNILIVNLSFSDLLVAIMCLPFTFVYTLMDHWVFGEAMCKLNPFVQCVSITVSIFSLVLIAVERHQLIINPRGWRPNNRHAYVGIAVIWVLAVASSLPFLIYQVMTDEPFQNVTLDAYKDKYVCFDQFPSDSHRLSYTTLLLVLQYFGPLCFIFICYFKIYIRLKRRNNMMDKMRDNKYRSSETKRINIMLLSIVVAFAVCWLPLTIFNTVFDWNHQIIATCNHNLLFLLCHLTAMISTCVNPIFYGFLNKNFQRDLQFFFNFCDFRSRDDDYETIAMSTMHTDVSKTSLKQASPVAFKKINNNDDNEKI
# [5] = molecular target: T2, Neuropeptide Y receptor type 1; assay: Fluorescence-based dose response cell-based high-throughput screening assay for agonists of NPY-Y1. [Related pubchem assays: 1697 (Screening assay (NPY-Y1 agonists).), 1359 (Screening assay (NPY-Y2 potentiators or agonists).), 1304 (Screening assay (NPY-Y1 potentiators or agonists).), 1704 (Screening assay (CNGC inhibitors).), 1791 (Summary AID.)]; type: functional
# [6] = molecular target: T3, Mannose-6-phosphate isomerase (Homo sapiens, UniProt P34949); assay: MPI inhibition at elevated mannose 6-phosphate – biochemical, fluorescence intensity, high mannose 6-phosphate, primary screen (AID 1220)
# T3 sequence (P34949 whole entry): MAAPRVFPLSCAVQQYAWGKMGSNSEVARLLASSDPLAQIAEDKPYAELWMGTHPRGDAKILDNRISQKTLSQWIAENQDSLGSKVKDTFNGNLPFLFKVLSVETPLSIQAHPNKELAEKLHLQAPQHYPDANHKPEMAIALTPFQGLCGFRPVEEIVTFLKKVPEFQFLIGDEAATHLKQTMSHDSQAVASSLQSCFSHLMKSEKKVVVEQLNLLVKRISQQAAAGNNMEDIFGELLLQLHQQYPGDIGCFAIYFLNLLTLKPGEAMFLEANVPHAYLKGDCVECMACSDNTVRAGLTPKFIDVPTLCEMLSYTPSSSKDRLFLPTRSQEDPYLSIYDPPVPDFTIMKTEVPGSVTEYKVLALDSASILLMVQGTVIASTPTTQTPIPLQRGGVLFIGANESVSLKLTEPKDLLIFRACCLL
# [7] = molecular target: Heat shock protein HSP 90-alpha (Homo sapiens, UniProt P07900); type: functional, organism-based
# [8] = HGIII-sPLA2 enzyme inhibition potency – biochemical, QFRET, IC50, dose response (AID 743457);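 note: green fluorescence rise as the enzyme cleaves BODIPY PC-A2 in liposomes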
# [9] = molecular target: Disintegrin and metalloproteinase domain-containing protein 17 (Homo sapiens, UniProt P78536); assay: exosite inhibitors of ADAM17, dose response, biochemical (AID 743260)
# [10] = inhibition of ADAM10 peptide cleavage – biochemical, FRET peptide substrate, recombinant human ADAM10, selectivity assay for ADAM17 exosite inhibitor project, dose response (AID 743259);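 note: ADAM10 enzyme cleaving a FRET peptide substrate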
# [11] = test system: Vero; assay: inhibition of WNV-induced cytopathic effect – cell-based, CPE readout (AID 1621); type: functional; details: Chlorocebus sabaeus
# [12] = HEK-293T viability loss after treatment – luminescence, T-cell screen hits, cytotoxicity control for TCR NF-kB inhibitor project, dose response (AID 489026); type: functional, cell-based;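 note: cells exposed to compound about 14 hours before the viability readout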
# [13] = molecular target: T4, Microphthalmia-associated transcription factor (Homo sapiens, UniProt O75030); assay: reducers of TRPM1 reporter luminescence, concentration series – cell-based, SK-MEL-5, cherry-picked, set 3, MITF inhibitor project, dose response (AID 493073); type: functional;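 note: SK-MEL-5 melanoma cells with luciferase driven by the MITF target TRPM1 promoter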
# T4 sequence (O75030 whole entry): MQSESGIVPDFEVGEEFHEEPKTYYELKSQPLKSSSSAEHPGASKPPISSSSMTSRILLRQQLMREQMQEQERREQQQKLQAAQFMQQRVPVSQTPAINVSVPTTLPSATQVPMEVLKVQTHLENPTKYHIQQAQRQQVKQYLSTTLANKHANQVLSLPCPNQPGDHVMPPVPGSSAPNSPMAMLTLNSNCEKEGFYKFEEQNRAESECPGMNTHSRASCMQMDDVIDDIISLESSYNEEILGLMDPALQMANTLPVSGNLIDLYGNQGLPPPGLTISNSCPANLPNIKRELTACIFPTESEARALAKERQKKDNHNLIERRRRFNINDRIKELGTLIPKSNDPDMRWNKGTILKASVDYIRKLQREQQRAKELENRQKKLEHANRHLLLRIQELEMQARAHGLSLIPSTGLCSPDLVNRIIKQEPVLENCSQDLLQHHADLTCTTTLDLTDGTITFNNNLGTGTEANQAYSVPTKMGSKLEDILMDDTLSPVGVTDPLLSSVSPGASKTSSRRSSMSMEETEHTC
# [14] = molecular target: Heat shock protein HSP90 (Homo sapiens, UniProt P07900+P08238); assay: Hsp90 blockade concentration-response – dose response (AID 712); type: functional
# [15] = molecular target: T5, Estrogen receptor (Homo sapiens, UniProt P03372);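 note: potency for inhibiting coactivator peptide recruitment to the receptor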
# T5 sequence (P03372 whole entry): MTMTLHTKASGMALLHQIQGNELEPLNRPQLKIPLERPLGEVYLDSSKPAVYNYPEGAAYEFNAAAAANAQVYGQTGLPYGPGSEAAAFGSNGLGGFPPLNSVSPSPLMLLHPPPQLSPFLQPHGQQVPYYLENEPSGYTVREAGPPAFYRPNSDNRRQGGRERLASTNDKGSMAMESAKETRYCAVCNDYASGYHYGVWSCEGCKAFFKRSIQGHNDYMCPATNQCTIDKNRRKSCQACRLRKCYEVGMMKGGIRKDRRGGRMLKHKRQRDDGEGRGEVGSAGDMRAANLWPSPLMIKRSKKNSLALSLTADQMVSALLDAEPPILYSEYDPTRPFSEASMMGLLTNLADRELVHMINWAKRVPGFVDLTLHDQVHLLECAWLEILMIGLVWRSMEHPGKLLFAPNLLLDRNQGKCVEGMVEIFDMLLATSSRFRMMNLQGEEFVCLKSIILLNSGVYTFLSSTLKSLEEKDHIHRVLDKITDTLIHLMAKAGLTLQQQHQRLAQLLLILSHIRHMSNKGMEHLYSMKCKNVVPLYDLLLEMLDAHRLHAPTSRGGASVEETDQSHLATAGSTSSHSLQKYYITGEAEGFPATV
# [16] = molecular target: T6, Estrogen receptor beta (Homo sapiens, UniProt Q92731);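 note: recombinant ER-beta bound to coactivator SRC1 peptide in presence of estradiol agonist; inhibitors block coactivator peptide binding and lower the FRET signal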
# T6 sequence (Q92731 whole entry): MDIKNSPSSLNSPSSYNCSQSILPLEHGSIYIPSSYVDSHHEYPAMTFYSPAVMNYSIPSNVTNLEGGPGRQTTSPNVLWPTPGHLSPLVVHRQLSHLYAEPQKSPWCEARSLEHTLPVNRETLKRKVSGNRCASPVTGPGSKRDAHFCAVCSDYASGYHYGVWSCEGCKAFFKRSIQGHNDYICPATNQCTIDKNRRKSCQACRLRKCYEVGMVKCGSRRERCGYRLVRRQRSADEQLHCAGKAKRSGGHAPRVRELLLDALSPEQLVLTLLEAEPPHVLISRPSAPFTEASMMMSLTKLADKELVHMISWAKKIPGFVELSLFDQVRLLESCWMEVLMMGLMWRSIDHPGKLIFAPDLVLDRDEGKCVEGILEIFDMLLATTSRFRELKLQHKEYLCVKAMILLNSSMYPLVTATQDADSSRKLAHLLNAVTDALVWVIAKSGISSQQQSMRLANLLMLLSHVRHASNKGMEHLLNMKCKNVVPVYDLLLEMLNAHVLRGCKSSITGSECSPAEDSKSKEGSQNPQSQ
# [17] = molecular target: T6, Estrogen receptor beta; assay: blockers of SRC-3 recruitment to ERβ – biochemical, ELISA, streptavidin-HRP readout, orthogonal assay, confirmation (AID 1060)
# [18] = molecular target: Induced myeloid leukemia cell differentiation protein Mcl-1 (Homo sapiens, UniProt Q07820); type: functional
# Induced myeloid leukemia cell differentiation protein Mcl-1, sequence (Q07820 whole entry): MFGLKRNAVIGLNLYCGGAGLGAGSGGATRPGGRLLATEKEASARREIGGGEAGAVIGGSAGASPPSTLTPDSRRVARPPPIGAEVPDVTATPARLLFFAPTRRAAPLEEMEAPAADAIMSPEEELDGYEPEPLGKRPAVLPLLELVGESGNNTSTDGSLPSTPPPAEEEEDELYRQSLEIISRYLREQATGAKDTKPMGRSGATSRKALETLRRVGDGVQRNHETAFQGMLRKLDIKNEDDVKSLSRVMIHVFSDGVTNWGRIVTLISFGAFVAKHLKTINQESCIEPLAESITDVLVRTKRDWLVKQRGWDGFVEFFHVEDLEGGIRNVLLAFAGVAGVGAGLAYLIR
# [19] = molecular target: Trypsin (Sus scrofa, UniProt P00761); assay: trypsin protease activity blockade – biochemical, quenched peptide fluorescence, cherry-pick, selectivity assay for Rce1 protease inhibitor project, dose response (AID 488789)
# [20] = molecular target: T7, CAAX prenyl protease 2 (Homo sapiens, UniProt Q9Y256); assay: inhibition of Ras-converting CAAX protease Rce1 – biochemical, yeast membranes, quenched-peptide fluorescence, cherry-pick, dose response (AID 588849)
# T7 sequence (Q9Y256 whole entry): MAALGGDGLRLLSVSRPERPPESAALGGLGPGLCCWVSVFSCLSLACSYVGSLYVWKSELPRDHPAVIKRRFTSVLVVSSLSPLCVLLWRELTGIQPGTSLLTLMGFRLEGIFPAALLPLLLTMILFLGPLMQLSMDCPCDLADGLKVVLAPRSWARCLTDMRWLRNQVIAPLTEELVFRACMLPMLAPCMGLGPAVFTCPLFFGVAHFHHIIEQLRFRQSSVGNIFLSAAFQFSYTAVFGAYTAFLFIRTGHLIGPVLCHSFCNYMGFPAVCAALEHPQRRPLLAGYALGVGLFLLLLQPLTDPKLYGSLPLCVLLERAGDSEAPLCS
# [21] = molecular target: Prothrombin (Homo sapiens, UniProt P00734); assay: Thrombin 1536 HTS Dose Response Confirmation. [Related pubchem assays: 1046 (Thrombin 1536 HTS; hits were confirmed in this assay)]; type: functional
# [22] = molecular target: Genome polyprotein (Hepatitis C virus, UniProt Q2Q167); assay: disruption of hepatitis C core self-association – biochemical, TR-FRET, dose response (AID 2159); set-up: species or system Hepacivirus hominis;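 note: blocks dimerization of HCV core protein measured by TR-FRET between tagged core106 pairs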
# [23] = molecular target: T8, Voltage-gated N-type calcium channel alpha-1B subunit/Amyloid beta A4 precursor protein-binding family A member 1 (Homo sapiens, UniProt Q00975+Q02410); type: protein assay
# T8 sequence (Q00975 whole entry): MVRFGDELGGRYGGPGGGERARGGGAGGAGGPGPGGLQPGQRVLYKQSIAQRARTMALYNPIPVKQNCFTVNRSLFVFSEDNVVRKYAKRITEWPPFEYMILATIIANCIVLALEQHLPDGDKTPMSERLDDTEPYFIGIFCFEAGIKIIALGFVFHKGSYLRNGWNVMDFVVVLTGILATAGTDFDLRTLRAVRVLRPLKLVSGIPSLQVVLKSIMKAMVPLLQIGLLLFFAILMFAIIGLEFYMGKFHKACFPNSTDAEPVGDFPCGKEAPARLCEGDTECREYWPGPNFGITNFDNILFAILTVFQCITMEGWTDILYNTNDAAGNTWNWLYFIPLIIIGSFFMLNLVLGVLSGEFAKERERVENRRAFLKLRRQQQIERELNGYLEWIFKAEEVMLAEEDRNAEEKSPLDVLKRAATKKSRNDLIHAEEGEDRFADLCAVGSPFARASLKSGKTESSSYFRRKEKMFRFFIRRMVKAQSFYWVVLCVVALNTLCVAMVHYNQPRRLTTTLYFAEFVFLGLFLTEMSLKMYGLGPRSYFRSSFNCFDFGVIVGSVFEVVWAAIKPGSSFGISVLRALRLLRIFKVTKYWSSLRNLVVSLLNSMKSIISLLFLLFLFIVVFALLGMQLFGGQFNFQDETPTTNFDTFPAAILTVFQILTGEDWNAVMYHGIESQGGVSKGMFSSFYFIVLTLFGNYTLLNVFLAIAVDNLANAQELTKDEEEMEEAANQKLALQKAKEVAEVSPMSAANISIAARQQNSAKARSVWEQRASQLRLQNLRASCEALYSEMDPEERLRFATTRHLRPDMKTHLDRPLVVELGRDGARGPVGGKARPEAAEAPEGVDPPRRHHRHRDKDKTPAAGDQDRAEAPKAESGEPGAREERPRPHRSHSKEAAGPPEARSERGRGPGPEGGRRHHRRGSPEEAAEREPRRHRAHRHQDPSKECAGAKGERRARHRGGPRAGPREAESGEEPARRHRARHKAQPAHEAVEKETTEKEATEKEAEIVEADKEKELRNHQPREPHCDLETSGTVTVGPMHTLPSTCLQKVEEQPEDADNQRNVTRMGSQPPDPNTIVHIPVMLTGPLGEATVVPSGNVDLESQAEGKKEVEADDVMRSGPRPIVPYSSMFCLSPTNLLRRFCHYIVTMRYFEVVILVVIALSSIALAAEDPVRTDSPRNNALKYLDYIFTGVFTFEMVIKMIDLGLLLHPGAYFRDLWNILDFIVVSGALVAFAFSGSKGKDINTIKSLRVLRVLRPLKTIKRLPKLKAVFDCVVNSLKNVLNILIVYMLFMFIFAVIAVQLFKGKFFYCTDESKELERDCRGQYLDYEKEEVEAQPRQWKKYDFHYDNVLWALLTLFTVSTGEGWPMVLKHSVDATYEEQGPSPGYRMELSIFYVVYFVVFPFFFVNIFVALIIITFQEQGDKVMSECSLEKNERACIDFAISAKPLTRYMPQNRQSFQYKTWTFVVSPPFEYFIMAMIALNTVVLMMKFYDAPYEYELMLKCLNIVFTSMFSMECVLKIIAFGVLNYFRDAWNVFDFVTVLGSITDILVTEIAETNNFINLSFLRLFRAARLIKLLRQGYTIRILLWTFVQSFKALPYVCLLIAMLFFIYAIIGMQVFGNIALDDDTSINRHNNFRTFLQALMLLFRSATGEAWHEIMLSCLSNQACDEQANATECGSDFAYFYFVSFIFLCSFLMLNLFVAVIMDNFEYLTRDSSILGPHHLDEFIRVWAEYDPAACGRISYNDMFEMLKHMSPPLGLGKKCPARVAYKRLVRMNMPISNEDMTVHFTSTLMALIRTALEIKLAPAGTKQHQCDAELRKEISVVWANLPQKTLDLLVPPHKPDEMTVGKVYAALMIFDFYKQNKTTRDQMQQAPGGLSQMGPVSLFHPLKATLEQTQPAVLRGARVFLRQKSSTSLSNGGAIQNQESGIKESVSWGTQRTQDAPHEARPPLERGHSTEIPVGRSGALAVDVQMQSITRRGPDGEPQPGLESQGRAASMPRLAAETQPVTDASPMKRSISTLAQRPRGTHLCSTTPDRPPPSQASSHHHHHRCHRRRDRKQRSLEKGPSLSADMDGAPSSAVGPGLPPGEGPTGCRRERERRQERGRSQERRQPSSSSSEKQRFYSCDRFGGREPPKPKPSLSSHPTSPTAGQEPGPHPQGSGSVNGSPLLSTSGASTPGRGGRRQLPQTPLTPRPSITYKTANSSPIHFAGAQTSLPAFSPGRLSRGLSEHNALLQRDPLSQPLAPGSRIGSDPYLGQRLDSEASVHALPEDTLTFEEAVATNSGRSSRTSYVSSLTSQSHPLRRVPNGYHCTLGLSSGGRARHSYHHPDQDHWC
# T8 sequence (Q02410 whole entry): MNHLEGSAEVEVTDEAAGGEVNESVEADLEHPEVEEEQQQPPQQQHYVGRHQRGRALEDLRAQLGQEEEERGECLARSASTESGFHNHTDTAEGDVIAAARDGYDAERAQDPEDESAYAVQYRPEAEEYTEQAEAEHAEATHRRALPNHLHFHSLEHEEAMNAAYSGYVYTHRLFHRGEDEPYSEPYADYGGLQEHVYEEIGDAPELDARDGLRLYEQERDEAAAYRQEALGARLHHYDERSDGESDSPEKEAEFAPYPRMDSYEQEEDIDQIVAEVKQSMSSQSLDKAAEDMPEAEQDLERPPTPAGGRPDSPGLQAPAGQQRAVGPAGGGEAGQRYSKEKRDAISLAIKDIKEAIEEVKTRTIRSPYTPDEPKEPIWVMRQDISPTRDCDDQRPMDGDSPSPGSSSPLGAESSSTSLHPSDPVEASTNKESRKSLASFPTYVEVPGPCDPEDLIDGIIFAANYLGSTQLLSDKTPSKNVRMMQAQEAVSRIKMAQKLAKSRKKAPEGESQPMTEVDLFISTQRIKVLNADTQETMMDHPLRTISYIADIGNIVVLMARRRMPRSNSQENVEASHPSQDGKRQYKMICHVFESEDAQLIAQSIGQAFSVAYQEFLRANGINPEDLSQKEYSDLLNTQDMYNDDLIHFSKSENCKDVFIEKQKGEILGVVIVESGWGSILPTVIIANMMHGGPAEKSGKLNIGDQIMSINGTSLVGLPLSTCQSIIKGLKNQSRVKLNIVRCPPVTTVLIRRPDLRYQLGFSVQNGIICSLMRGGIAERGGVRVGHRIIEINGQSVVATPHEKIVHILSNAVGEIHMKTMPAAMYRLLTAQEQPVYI
# [24] = molecular target: T9, Heat shock factor protein 1 (Mus musculus, UniProt P38532); assay: decrease of HSF1-responsive luciferase luminescence – cell-based, NIH3T3, dose retest, confirmation (AID 2382); type: functional;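 note: NIH3T3 fibroblasts with HSF1-driven luciferase reporter stressed by proteasome inhibitor MG132; luminescence from HSF1-driven luciferase expression after 8 hours of MG132 stress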
# T9 sequence (P38532 whole entry): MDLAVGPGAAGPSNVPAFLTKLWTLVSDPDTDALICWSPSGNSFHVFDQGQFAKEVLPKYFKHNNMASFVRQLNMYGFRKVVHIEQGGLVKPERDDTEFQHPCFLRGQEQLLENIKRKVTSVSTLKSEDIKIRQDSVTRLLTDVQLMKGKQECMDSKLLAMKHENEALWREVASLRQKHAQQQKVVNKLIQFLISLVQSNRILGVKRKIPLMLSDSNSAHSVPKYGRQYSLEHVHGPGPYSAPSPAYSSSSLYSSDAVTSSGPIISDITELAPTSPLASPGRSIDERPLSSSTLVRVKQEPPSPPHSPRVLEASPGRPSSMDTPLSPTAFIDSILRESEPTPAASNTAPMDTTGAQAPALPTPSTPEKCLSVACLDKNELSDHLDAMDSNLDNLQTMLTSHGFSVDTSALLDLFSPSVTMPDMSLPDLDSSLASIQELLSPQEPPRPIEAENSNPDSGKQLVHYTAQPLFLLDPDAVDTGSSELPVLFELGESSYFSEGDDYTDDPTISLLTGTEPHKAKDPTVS
# [25] = molecular target: Large T antigen (Simian virus 40, UniProt P03070); type: functional, Betapolyomavirus macacae;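 note: Confirmatory-stage PubChem screen for compounds that inhibit SV40 T antigen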
# [26] = molecular target: T8, Voltage-gated N-type calcium channel alpha-1B subunit/Amyloid beta A4 precursor protein-binding family A member 1; type: protein assay; remark: listed apart in the source
# [27] = molecular target: Protein-tyrosine kinase 2-beta (Homo sapiens, UniProt Q14289);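 note: potency of inhibitors of PYK2 kinase phosphorylation of poly-GT substrate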
# Protein-tyrosine kinase 2-beta, sequence (Q14289 whole entry): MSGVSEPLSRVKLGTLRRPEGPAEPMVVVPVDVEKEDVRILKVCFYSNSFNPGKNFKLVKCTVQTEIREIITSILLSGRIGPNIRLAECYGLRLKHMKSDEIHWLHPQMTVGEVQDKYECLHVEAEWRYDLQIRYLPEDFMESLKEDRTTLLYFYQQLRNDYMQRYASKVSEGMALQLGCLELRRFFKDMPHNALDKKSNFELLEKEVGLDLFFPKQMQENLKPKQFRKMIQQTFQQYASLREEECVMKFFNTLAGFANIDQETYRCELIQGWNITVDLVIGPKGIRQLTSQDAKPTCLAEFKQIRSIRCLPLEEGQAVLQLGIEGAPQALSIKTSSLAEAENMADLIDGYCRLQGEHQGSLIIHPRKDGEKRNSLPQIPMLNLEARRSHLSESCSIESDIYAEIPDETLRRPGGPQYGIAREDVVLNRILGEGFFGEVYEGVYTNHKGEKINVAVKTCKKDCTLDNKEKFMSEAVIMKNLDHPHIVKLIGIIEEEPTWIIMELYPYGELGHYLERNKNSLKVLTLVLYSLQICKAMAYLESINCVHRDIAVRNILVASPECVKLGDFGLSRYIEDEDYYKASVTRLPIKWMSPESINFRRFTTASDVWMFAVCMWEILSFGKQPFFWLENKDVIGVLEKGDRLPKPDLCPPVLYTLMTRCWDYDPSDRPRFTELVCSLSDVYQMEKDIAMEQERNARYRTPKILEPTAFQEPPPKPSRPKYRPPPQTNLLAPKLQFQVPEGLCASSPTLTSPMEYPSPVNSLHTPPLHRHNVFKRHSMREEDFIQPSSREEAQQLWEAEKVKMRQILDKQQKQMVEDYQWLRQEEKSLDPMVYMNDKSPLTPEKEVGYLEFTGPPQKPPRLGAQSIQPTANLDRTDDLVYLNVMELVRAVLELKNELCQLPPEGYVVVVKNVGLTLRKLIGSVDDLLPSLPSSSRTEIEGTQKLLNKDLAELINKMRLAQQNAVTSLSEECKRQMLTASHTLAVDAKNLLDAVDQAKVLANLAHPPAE
# [28] = molecular target: T8, Voltage-gated N-type calcium channel alpha-1B subunit/Amyloid beta A4 precursor protein-binding family A member 1; assay: disruptors of Mint-PDZ/N-type channel peptide interaction – biochemical, HTRF, set 2, SAR follow-up (AID 434980); type: functional
# [29] = molecular target: T8, Voltage-gated N-type calcium channel alpha-1B subunit/Amyloid beta A4 precursor protein-binding family A member 1; assay: disruptors of Mint-PDZ/N-type channel peptide interaction – biochemical, HTRF, SAR follow-up (AID 2489); type: functional
# [30] = molecular target: Albumin (Bos taurus, UniProt P02769); assay: Counterscreen for inhibitors of T-cell receptor (TCR)-CD3 interaction: Fluorescence-based biochemical high throughput dose response assay to identify inhibitors of T-cell receptor (TCR)-CD3 interaction using a TAMRA-labeled BSA probe.; type: functional
smiles,measurement,setting,value
CC(C)/N=c1\scc(-c2cccs2)n1/N=C/c1ccc(O)c(O)c1O,EC50,[1],22 µM (not active)
same,EC50,[2],24.3 µM (not active)
same,IC50,[3],> 35.4 µM (not active)
same,EC50,[4],> 35.4 µM (not active)
same,EC50,[5],> 3.94 µM (active)
same,IC50,[6],> 50 µM (not active)
same,AC50,[7],3.46 µM (active)
same,IC50,[8],41.3 µM (inactive)
same,IC50,[9],31.2 µM (inactive)
same,IC50,[10],12.8 µM (inactive)
CC(C)c1oc(=O)cc2c1[C@@H](O)[C@H]1OC(=O)[C@@]3(C)C[C@@H](O)[C@@H](O)[C@@]2(C)C13 (some centres not stated),IC50,[11],30.5 µM (active)
same,IC50,[12],> 80 µM (inactive)
same,AC50,[13],1.63 µM (active)
COc1ccc(OC)c(/C=N/c2oc(-c3ccco3)c(-c3ccco3)c2C#N)c1,IC50,[14],21.1062 µM
same,IC50,[15],16.3 µM (active)
same,IC50,[16],6.47 µM (active)
same,IC50,[17],9.23 µM (not active)
same,IC50,[18],6.88 µM (active)
same,AC50,[19],7.23 µM (active)
same,AC50,[20],4.46 µM (active)
COc1ccc(C(=O)n2c(SC)nc3cc4c(cc32)OCCO4)cc1,IC50,[21],0.955 µM (active)
Nc1ncnc2oc(-c3ccco3)c(-c3ccco3)c12,IC50,[22],> 49.8 µM (not active)
same,IC50,[23],3.82 µM (active)
same,EC50,[24],56.7 µM (active)
same,IC50,[25],49.5 µM (active)
same,IC50,[26],2.6 µM (active)
same,IC50,[17],3.4 µM (not active)
same,IC50,[27],2.92 µM (active)
same,IC50,[18],4.12 µM (active)
same,IC50,[28],2.42 µM (active)
same,IC50,[29],21.7 µM (active)
same,IC50,[30],> 94.1 µM (inactive)
